Drawing on patent publication US20060063785A1, “Substituted pyrazolo[1,5-a] pyrimidines and process for making same” (priority 2004, published 2006), this text covers IC50 for 24 compounds.

The subject of one experiment is LoVo Colon cell line. Description: Cytotoxicity assay using LoVo colon cell line (SRB, IC50). As to conditions: read-out: Inhibition of LoVo. Type of experiment: cell-based. The method, then: Cytotoxicity Assay Using LoVo Colon Cell Line: • 1. LoVo Colon cell lines was cultured in RPMI 1640 medium (Gibco/Invitrogen Life Sciences) supplemented with 10% fetal bovine serum (FBS, Gibco) and 50 μg/ml gentamicin (Gibco). Cells were maintained at 37° C. under 7% CO2. • 2. Cells were seeded in 96-well microtiter plates (Corning/Costar) in a volume of 0.15 ml of growth medium (4000 cells/well). Plates were incubated at 37° C. overnight (18-24 hours). • 3. Serial dilutions of the test agent were added to each well. Dilutions were prepared in growth medium. One of two dose ranges was used: 5 pM to 20 μM or […] to 10 μg/ml. Cells were incubated with the test compounds for 4 days at 37° C. • 4. Surviving cells were processed using the SRB asay, as described above.
5. The drug concentration that inhibits cell proliferation by 50% relative to untreated controls (IC50) was determined from cytotoxicity curves using the LSW Toolbox graphing application.

In experiment [1] the test system is 80S14 (p21-deficient) cells. In words: Determination of selectivity of compounds for p21-/- cells: IC50 in 80S14 cells (SRB). Type of experiment: cell-based, human. The method, then: • 1. 80S14 (p21-deficient) cells were cultured in RPMI 1640 medium (Gibco/Invitrogen Life technologies) supplemented with 10% fetal bovine serum (FBS, Gibco) and 10 μg/ml gentamycin (Gibco). Cells were maintained at 37° C. under 7% CO2. • 2. Cells were plated at 6×10^4/ml (0.2 ml/well; 12,000 cells/well) in 96-well microtiter plates (Falcon or Corning/Costar) and incubated at 37° C. overnight (18-24 hours). • 3. 2-5 μl of the test agent-[200 μg/ml stock in 20% DMSO/20 mM HEPES, pH 7.5 (Gibco)] was added to each well to achieve a final concentration of 2-5 μg/ml. Cells were incubated with the test compounds for 5 days at 37° C. • 4. Surviving cells were fixed with 50 μl 50% trichloroacetic acid (Sigma; 10% final concentration) for 1 hour at 4° C. • 5. Plates were rinsed twice with water (0.3 ml per wash using MRD8 robot), and allowed to dry. • 6. Sulforhodamine B (SRB) (Sigma; 0.4% in 1% acetic acid, 50 μl per well; MRD8 robot) was added and plates kept at room temperature for 10 minutes. • 7. Excess dye was removed by washing with 1% acetic acid (3 times, 0.3 ml per wash; MRD8 robot) and allowed to dry. • 8. The dye was solubilized in Tris base (Sigma; 10 mM, 150 μl per well). Plates were kept at room temperature for 30 minutes to allow the dye to diffuse. • 9. Absorbance was measured at 540 nm. • 10. The percentage of cells surviving drug treatment relative to control wells (no drug) was determined. • 11. The difference in % cell survival between the two cell lines was calculated. • 12. Compounds producing a difference score of >50 were considered to be selective for the p21-deficient cells and were evaluated further. Determination of Selectivity of Compounds for p21−/− Cells: • 1. 80S14 cells were cultured as described above. • 2. Cells were seeded in 96-well microtiter plates at 12,000 cells/well (either 0.15 ml/well of 8×10^4 cells/ml suspension, or 0.2 ml/well of 6×10^4 cells/ml suspension). Plates were incubated at 37° C. overnight (18-24 hours). • 3. Serial dilutions of the test agent were added to each well. Dilutions were prepared either in 40% DMSO/20% methanol/20 mM HEPES, pH 7.5 (Gibco) or directly in growth medium. One of two dose ranges were used: 5 pM to 50 μM or 170 pg/ml to 10 μg/ml. Cells were incubated with the test compounds for 5 days at 37° C. • 4. Surviving cells were fixed with 50 μl 50% trichloroacetic acid (Sigma; 10% final concentration) for 1 hour at 4° C. • 5. Plates were rinsed extensively in water, and allowed to dry. • 6. Sulforhodamine B (Sigma; 0.4% in 1% acetic acid, 70 μl per well) was added and plates kept at room temperature for 10 minutes. • 7. Excess dye was removed by washing 5 times with 1% acetic acid and plates were allowed to dry. • 8. The dye was solubilized in Tris base (Sigma; 10 mM, 150 μl per well). Plates were placed on a titer plate shaker (Lab Line Instruments) for 5 minutes to allow the dye to diffuse. • 9. Absorbance was measured at 560 nm.
10. The drug concentration which inhibits cell proliferation by 50% relative to untreated controls (IC50) was determined from cytotoxicity curves.

The mark [2] stands for this setting: Cellular activity in LoVo cell, 4 days incubation, SRB assay.
[3] abbreviates: Cellular activity in 80S14 (p21-deficient) cells, SRB, class symbols, read-out: IC50 for 80S14.
Where [4] appears, read: Homo sapiens, 80S14, 120 h, read-out: IC50 for 80S14 (μM).
[5] abbreviates: LoVo colon cells, 4 days at 37° C., SRB.
The mark [6] stands for this setting: 80S14 (p21-deficient) cells, 5 days at 37° C., SRB, read-out: IC50 for 80S14.
Where [7] appears, read: Homo sapiens, 120 h, 80S14 (p21-deficient) cells, 5 days at 37° C., SRB, read-out: IC50 for 80S14.
The mark [8] stands for this setting: Homo sapiens, 96 h, LoVo colon cells, 4 days at 37° C., SRB.
[9] abbreviates: Homo sapiens, Cellular activity in 80S14 (p21-deficient) cells, SRB, class symbols, read-out: IC50 for 80S14.

Like-named read-outs stand apart in the source and are kept apart here.

In the case of “3-(3,5-Dimethylphenyl)-7-[3-(2-ethyl-2H-tetrazol-5-yl)phenyllpyrazolo[1,5-a]pyrimidine [Example 384]”, the IC50 in the experiment on LoVo Colon cell line (setting [2]) was 100 to 1000 nM; in experiment [1] (setting [3]) it was 1 to 10 µM. Consider “3-Methyl-N-{^5-[3-(thien-2-ylcarbonyl)pyrazolo[1,5-a]pyrimidin-7-yl]thien-2-yl}butanamide [Example 240]”, for which the IC50 with LoVo Colon cell line (setting [2]) was in the range of 1000 to 20000 nM; in experiment [1] (setting [3]) it was 1 to 10 µM. For “7-{3-[2-(Cyclobutylmethyl)-2H-tetraazol-5-yl]phenyl}-3-(3,5-dimethylphenyl)pyrazolo[1,5-a]pyrimidine [Example 381]”, the IC50 was 100 to 1000 nM in the experiment on LoVo Colon cell line (setting [2]) and 1 to 10 µM in experiment [1] (setting [3]).

Regarding `C#CCOC(=O)Nc1cccc(-c2ccnc3c(C(=O)c4cccs4)cnn23)c1` [Example 13, prop-2-ynyl 3-[3-(thien-2-ylcarbonyl)pyrazolo[1,5-a]pyrimidin-7-yl]phenylcarbamate], the IC50 with LoVo Colon cell line (Homo sapiens, LoVo, 96 h) was 100 to 1000 nM; in experiment [1] (setting [4]), under 1 µM.

Turning to `O=C(Nc1cccc(-c2ccnc3c(C(=O)c4cccs4)cnn23)c1)OCCCl` [Example 16, 2-chloroethyl 3-[3-(thien-2-ylcarbonyl)pyrazolo[1,5-a]pyrimidin-7-yl]phenylcarbamate], the IC50 in the experiment on LoVo Colon cell line (Homo sapiens, LoVo, 96 h) is under 100 nM; in experiment [1] (setting [4]), under 1 µM. In the case of `C=C(C)C(=O)Nc1cccc(-c2ccnc3c(C(=O)c4cccs4)cnn23)c1` [Example 36, 2-methyl-N-{3-[3-(thien-2-ylcarbonyl)pyrazolo[1,5-a]pyrimidin-7-yl]phenyl} acrylamide], the figures for the IC50 (in the experiment on LoVo Colon cell line (setting [5]); in experiment [1] (setting [6])) were under 100 nM and under 1 µM, respectively. `O=C(CNC(=O)NC1CCCCC1)Nc1cccc(-c2ccnc3c(C(=O)c4cccs4)cnn23)c1` [Example 120, N-2-[(cyclohexylamino)carbonyl]-N-1-{3-[3-(thien-2-ylcarbonyl)pyrazolo[1,5-a]pyrimidin-7-yl]phenyl}glycinamide]: in experiment [1] (setting [6]), the IC50 was in the range of 1 to 10 µM. For the compound `CCCC(Cl)CC(=O)Nc1cccc(-c2ccnc3c(C(=O)c4cccs4)cnn23)c1` (stereo not drawn) [Example 121, 3-chloro-N-{3-[3-(thien-2-ylcarbonyl)pyrazolo[1,5-a]pyrimidin-7-yl]phenyl}hexanamide], in experiment [1] (setting [7]), the IC50 is under 1 µM. As to `CCCCCCCCCCC(=O)Nc1cccc(-c2ccnc3c(C(=O)c4cccs4)cnn23)c1` [Example 124, N-{3-[3-(thien-2-ylcarbonyl.)pyrazolo[1,5-a]pyrimidin-7-yl]phenyl}undecanamide], the IC50 in experiment [1] (setting [6]) lay in the range of 10 to 50 µM. Consider `C/C=C/C(=O)Nc1cccc(-c2ccnc3c(C(=O)c4cccs4)cnn23)c1` [Example 129, (2E)-N-{3-[3-(thien-2-ylcarbonyl)pyrazolo[1,5-a]pyrimidin-7-yl]phenyl}but-2-enamide], for which the IC50 in experiment [1] (setting [7]) is 1 to 10 µM. For the compound `O=C(c1cccs1)c1cnn2c(-c3cccc(NC(=O)N4CCOCC4)c3)ccnc12` [Example 131, N-{3-[3-(thien-2-ylcarbonyl)pyrazolo[1,5-a]pyrimidin-7-yl]phenyl}morpholine-4-carboxamide], the IC50 in the experiment on LoVo Colon cell line (setting [8]) fell in the range of 100 to 1000 nM; in experiment [1] (setting [7]), 1 to 10 µM. As for `CN(C)CCNC(=O)Nc1cccc(-c2ccnc3c(C(=O)c4cccs4)cnn23)c1` [Example 134, N-[2-(dimethylamino)ethyl]-N′-{3-[3-(thien-2-ylcarbonyl)pyrazolo[1,5-a]pyrimidin-7-yl]phenyl}urea], in experiment [1] (setting [7]), the IC50 was in the range of 10 to 50 µM. On to `CCCCCNC(=O)Nc1cccc(-c2ccnc3c(C(=O)c4cccs4)cnn23)c1` [Example 138, N-pentyl-N′-{3-[3-(thien-2-ylcarbonyl)pyrazolo[1,5-a]pyrimidin-7-yl]phenyl}urea], for which the IC50 with LoVo Colon cell line (setting [8]) was under 100 nM.

Regarding `COCCN(CCOC)C(=O)Nc1cccc(-c2ccnc3c(C(=O)c4cccs4)cnn23)c1` [Example 141, N,N-bis(2-methoxyethyl)-N′-{3-[3-(thien-2-ylcarbonyl)pyrazolo[1,5-a]pyrimidin-7-yl]phenyl}urea], the IC50 with LoVo Colon cell line (setting [8]) fell in the range of 1000 to 20000 nM. As to `O=C(Nc1cccc(-c2ccnc3c(C(=O)c4cccs4)cnn23)c1)OCC1CCCCC1` [Example 148, Cyclohexylmethyl 3-[3-(thien-2-ylcarbonyl)pyrazolo[1,5-a]pyrimidin-7-yl]phenylcarbarmate], the IC50 was under 100 nM in the experiment with LoVo Colon cell line (setting [5]) and under 1 µM in experiment [1] (setting [6]). As to `Cc1cc(-c2cccc(NC(=O)C3CO3)c2)n2ncc(C(=O)c3cccs3)c2n1` (stereo not drawn) [Example 191, {3-[5-Methyl-3-(2-thienylcarbonyl)pyrazolo[1,5-a]pyrimidin-7-yl]phenyl}-2-oxiranecarboxamide], the IC50 in experiment [1] (setting [3]) is under 1 µM. As to `CC(C)COC(=O)Nc1cccc(-c2ccnc3c(Br)cnn23)c1` [Example 225, Isobutyl 3-(3-bromopyrazolo[1,5-a]pyrimidin-7-vl)phenvlcarbamate], the IC50 in experiment [1] (setting [3]) is 10 to 50 µM.

As to `CC(C)NC(=S)Nc1ccc(Cl)c(-c2ccnc3c(C(=O)c4cccs4)cnn23)c1` [Example 237, N-{4-Chloro-3-[3-(thien-2-ylcarbonyl)pyrazolo[1,5-a]pyrimidin-7-yl]phenyl}-N′-isopropylthiourea], the IC50 was 100 to 1000 nM in the experiment with LoVo Colon cell line (Homo sapiens, 96 h, Cellular activity in LoVo cell, 4 days incubation, SRB assay) and 1 to 10 µM in experiment [1] (setting [9]).

In the case of `O=C(Nc1cccc(-c2ccnc3c(C(=O)c4cccs4)cnn23)c1)NC1CCCCC1` [Example 249, N-Cyclohexyl-N′-{3-[3-(thien-2-ylcarbonyl)pyrazolo[1,5-a]pyrimidin-7-yl]phenyl}urea], the IC50 in experiment [1] (setting [9]) is under 1 µM.

As for `CN1CCC(C(=O)Nc2cccc(-c3ccnc4c(C(=O)c5cccs5)cnn34)c2)CC1` [Example 307, 1-Methyl-N-{3-[3-(thien-2-ylcarbonyl)pyrazolo[1,5-a]pyrimidin-7-yl]phenyl}piperidine-4-carboxamide], the IC50 in experiment [1] (setting [9]) lay within 10 to 50 µM.

As for `O=C(CCc1cccnc1)Nc1cccc(-c2ccnc3c(C(=O)c4cccs4)cnn23)c1` [Example 336, 3-Pyridin-3-yl-N-{3-[3-(thien-2-ylcarbonyl)pyrazolo [1,5-a]pyrimidin-7-yl]phenyl}propanamide], the IC50 in experiment [1] (setting [9]) is 1 to 10 µM. “N,N′-Diethyl-3-[3-(2-thienylcarbonyl)-pyrazolo[1,5-a]pyrimidin-7-yl]-benzamide [Example 181]”: the IC50 in experiment [1] (setting [3]) is 10 to 50 µM. Turning to “N-{3-[3-(2-Thienylcarbonyl)pyrazolo[1,5-a]pyrimidin-7-yl]phenyl}-3-trifluoromethyl)benzamide [Example 193]”, in experiment [1] (setting [3]), the IC50 is under 1 µM.

Regarding “tert-Butyl 4-[({3-[3-[3-(thien-2-ylcarbonyl)pyrazolo[1,5-a]pyrimidin-7-yl]phenyl}amino)carbonyl]piperidine-1-carboxylate [Example 295]”, the IC50 in experiment [1] (setting [3]) fell in the range of 1 to 10 µM.
